Test results from BigSolDB 2.1.

CC1=NN(c2ccccc2)C(=O)C1
solubility (mole fraction)
Settings | 273.15 K | 278.15 K | 283.15 K | 288.15 K | 293.15 K | 298.15 K | 303.15 K | 308.15 K | 313.15 K
in acetonitrile | 0.00554 | 0.00717 | 0.0092 | 0.0116 | 0.0144 | 0.018 | 0.0218 | 0.0265 | 0.0314
in ethanol | 0.0172 | 0.0197 | 0.0226 | 0.0253 | 0.0285 | 0.0321 | 0.0358 | 0.0397 | 0.0445
in ethyl acetate | 0.0152 | 0.0173 | 0.0196 | 0.0223 | 0.0253 | 0.0284 | 0.0323 | 0.0368 | 0.0419
in methanol | 0.0108 | 0.013 | 0.0153 | 0.0179 | 0.0208 | 0.0238 | 0.0274 | 0.0312 | 0.0354
in n-propanol | 0.0199 | 0.0222 | 0.0249 | 0.028 | 0.0317 | 0.0353 | 0.0393 | 0.0433 | 0.0472
